These results are taken from ChEMBL document CHEMBL5247658, “Development of Fluorescent 4-[4-(3H-Spiro[isobenzofuran-1,4'-piperidin]-1'-yl)butyl]indolyl Derivatives as High-Affinity Probes to Enable the Study of σ Receptors via Fluorescence-Based Techniques” (J Med Chem, 2023).

A word on the Ki: it is a measure of affinity in units of concentration, obtained from inhibition or displacement.

Series [1] is described as follows: Drug accumulation in human MCF7 cells assessed as increase in mean fluorescence intensity pretreated with (+)-pentazocine for 60 mins followed by compound addition incubated for 45 mins by flow cytometric analysis. Type of series: ADME, cell-based. To be noted: mcf7, 0.75 h, dose 0.01-1 µM. (In flow cytometry, cells or beads pass a laser one at a time.)
Series [2] has as its target Sigma non-opioid intracellular receptor 1 (Homo sapiens, UniProt Q99720). Nature of the series: Binding affinity to sigma 1 receptor (unknown origin) assessed as inhibition constant.
For series [3], the target named is T1, Sigma intracellular receptor 2 (Homo sapiens, UniProt Q5BJF2). Nature of the series: Binding affinity to sigma 2 receptor (unknown origin) assessed as inhibition constant.
T1 sequence (Q5BJF2 whole entry): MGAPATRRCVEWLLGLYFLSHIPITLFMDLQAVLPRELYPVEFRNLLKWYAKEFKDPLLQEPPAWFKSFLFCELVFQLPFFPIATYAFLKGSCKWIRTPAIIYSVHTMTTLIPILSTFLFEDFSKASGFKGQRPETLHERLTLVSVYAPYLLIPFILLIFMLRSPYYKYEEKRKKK
The target of series [4] is T2, Sigma non-opioid intracellular receptor 1 (Cavia porcellus, UniProt Q60492). Kind of series: Displacement of [3H](+)-pentazocine from sigma 1 receptor in guinea pig brain membranes assessed as inhibition constant by Wallac 1450 MicroBeta liquid scintillation counter. Type of series: cell membranes, Membrane. In general terms: In a radioligand displacement assay an active substance lowers the binding of a labelled ligand.
T2 sequence (Q60492 whole entry): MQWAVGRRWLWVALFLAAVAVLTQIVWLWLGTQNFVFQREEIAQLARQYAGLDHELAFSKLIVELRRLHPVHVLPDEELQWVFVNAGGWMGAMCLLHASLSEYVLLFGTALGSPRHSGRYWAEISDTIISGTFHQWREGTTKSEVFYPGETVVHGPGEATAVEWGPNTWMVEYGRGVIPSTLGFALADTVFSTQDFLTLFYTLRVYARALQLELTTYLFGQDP

The target of series [5] is T3, Sigma intracellular receptor 2 (Rattus norvegicus, UniProt Q5U3Y7).
T3 sequence (Q5U3Y7 whole entry): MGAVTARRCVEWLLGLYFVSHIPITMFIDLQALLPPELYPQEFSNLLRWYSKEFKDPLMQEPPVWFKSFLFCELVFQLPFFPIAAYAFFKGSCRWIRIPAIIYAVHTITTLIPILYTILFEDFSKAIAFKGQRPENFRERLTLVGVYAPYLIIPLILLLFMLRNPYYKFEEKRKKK
Nature of the series: Displacement of [3H]RHM-1 from sigma 2 receptor in Wistar Han rat liver membrane assessed as inhibition constant by competitive binding assay. Format: cell membranes.

The nature of series [6]: Drug accumulation in human MCF7 TMEM97 knock out cells assessed as increase in mean fluorescence intensity pretreated with (+)-pentazocine for 60 mins followed by compound addition incubated for 45 mins by flow cytometric analysis. The settings on record: mcf7, 0.75 h, dose 0.01-1 µM. Format: ADME, cell-based.
The target of series [7] is T1, Sigma intracellular receptor 2. Nature of the series: Binding affinity to sigma 2 receptor in human MCF7 cells assessed as increase in fluorescent intensity pretreated with (+)-pentazocine for 60 mins followed by compound addition incubated for 45 mins by flow cytometric analysis. Format: cell-based. The settings on record: dose 0.01-1 µM.
Series [8] is described as follows: Drug uptake in human MCF7 cells expressing sigma 1 receptor assessed as increase in fluorescence intensity in presence of (+)-pentazocine incubated at 1 to 10000 nM for 45 mins by flow cytometric analysis. To be noted: mcf7, 0.75 h, 10 µM, dose 1-10000 nM. Format: ADME, cell-based.
The target in series [9] is T2, Sigma non-opioid intracellular receptor 1. Kind of series: Displacement of [3H](+)-pentazocine from sigma 1 receptor in guinea pig brain membranes assessed as inhibition constant by competitive binding assay. Format: cell membranes, Membrane.
The target of series [10] is T3, Sigma intracellular receptor 2. Nature of the series: Displacement of [3H]DTG from sigma 2 receptor in Wistar Han rat liver membrane assessed as inhibition constant by competitive binding assay. Type of series: cell membranes.

Where only a bound is given, the exact number is not on record here.

Sigma non-opioid intracellular receptor 1 (Homo sapiens, UniProt Q99720), sequence (Q99720 whole entry): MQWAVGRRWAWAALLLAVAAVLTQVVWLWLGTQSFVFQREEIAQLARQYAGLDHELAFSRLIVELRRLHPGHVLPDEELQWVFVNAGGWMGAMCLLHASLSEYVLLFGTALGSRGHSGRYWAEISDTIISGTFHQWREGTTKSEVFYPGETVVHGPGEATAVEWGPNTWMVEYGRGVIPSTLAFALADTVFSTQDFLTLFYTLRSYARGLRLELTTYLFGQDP

For the compound `C[N+]1=C(/C=C/C=C/C=C2/N(CCCCCC(=O)Nc3ccc4ccn(CCCCN5CCC6(CC5)OCc5ccccc56)c4c3)c3ccccc3C2(C)C)C(C)(C)c2ccccc21.[I-]`, the Drug uptake entry in series [1] was “Dose-Dependent Effect”.
In the case of `CC1CCN(CCCCc2cccc3cc(OCCCCCCN4C(=O)c5ccc(N(C)C)cc5C4=O)ccc23)CC1`, the Ki came out at 0.03 nM in series [2] and 17.9 nM in series [3].
In the case of `COc1ccc(C)cc1NC(=O)OC1C[C@H]2CCC[C@@H](C1)N2CCCCCCCCCCS(=O)(=O)c1cccc2c(N(C)C)cccc12` (some centres not stated), the Ki was 1.05 nM in series [4] and 14 nM in [5].
Regarding `CN(C)c1ccc2c(c1)C(=O)N(Oc1cccc3c1CCCC3CCCN1CCN(C3CCCCC3)CC1)C2=O` (configuration not stated), the Ki in [3] is 6.9 nM.
Consider `C[N+]1=C(/C=C/C=C/C=C2\N(CCCCCC(=O)NCCCCCCn3cc(CCCCN4CCC5(CC4)OCc4ccccc45)c4ccccc43)c3ccccc3C2(C)C)C(C)(C)c2ccccc21.[I-]`, for which the Drug uptake result is given as “Dose-Dependent Effect” in series [1], “Dose-Dependent Effect” in series [6] and “Not Active” in series [8]. Moreover, the Activity entry in [7] was “Dose-Dependent Effect”.
As for `COc1cc2c(cc1OC)CN(CCCN1CCc3c(OCCCCCCN4C(=O)c5ccc(N(C)C)cc5C4=O)cccc3C1=O)CC2`, the Ki is > 5000 nM in series [9] and 10.2 nM in series [10].
